Laboratory results as given in patent US20250320206A1, “STAT6 DEGRADERS” (Gilead Sciences, Inc., priority 2024, published 2025).

These molecules were tested against T1, STAT6 (Homo sapiens, UniProt P42226) (assay: Stat6 Degrader Assay (HiBiT based, HeLa LgBiT clone 4.14)). Conditions: HeLa LgBiT clone 4.14 HiBiT-STAT6, 4-24 h incubation; read-out: STAT6 degradation Emax.
T1 construct: These cells express endogenous STAT6; host or cells: HeLa LgBiT clone 4.14
T1 sequence (P42226 1-847): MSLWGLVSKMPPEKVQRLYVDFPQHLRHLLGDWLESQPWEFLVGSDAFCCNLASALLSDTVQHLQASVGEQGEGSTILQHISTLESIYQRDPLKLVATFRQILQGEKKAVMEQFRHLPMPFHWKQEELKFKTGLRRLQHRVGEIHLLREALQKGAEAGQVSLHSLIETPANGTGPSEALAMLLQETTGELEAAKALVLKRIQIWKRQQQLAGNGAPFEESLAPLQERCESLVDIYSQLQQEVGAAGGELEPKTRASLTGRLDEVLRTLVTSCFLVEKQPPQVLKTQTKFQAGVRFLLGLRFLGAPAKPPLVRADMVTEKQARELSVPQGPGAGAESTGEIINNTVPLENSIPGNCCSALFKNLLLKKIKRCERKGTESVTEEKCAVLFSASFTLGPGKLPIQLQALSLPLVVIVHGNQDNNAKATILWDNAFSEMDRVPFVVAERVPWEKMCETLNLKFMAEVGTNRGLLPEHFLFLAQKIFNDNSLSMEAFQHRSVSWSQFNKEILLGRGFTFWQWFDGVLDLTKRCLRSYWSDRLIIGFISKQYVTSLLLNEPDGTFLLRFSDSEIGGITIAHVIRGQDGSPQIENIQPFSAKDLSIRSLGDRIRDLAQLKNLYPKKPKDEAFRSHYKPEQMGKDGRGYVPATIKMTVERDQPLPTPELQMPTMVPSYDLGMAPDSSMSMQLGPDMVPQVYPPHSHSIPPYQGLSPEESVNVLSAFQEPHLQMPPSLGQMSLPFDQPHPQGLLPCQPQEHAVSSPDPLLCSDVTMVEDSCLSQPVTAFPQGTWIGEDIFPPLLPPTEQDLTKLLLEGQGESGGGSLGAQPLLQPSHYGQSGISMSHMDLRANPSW
Type: cell-based
Experimental: This was a HiBit based assay. A HeLa cell line stably transfected with a small protein, LgBit (Large Bit) was obtained from Promega. These cells express endogenous STAT6. A small 11 amino acid gene sequence (HiBiT) was inserted in the STAT6 gene using CRISPR technology. Once STAT6 protein is expressed in the cells, the HiBiT sequence will bind the LgBit in the cells resulting in a functional NanoBiT protein, giving a luminescent tag to STAT6, see FIG. 2.
Single cell clones were prepared and the clone 4.14 was selected for the assay based on that clone showing high luminescence, high STAT6 phosphorylation upon stimulation with IL-4, and inhibition of luminescence when cells were treated with STAT6 siRNA.
HeLa LgBiT clone 4.14 cells were suspended in DMEM with 10% FCS, 1% Pen/Strep, Na-pyrovate and Hygromycin B, at a concentration of 1.25*105 cells pr mL. 5000 cells were added pr well of a 384 well plate and 20 nL of compound was added by Echo® liquid handler. NN6394A (terfenadine, a toxic compound) was added to control wells at 50 μM concentration to establish the assay window. In these wells the cells are dead which equals 100% degradation of STAT6.
After 4-24 h of incubation at 37° C. under 5% CO2/95% air, 5 μL substrate (Nano-GLO®) was added to the wells and the plates were centrifuged and incubated for 0.5 h.
The luminescence in the wells as a measure of non-degraded STAT6 was measured in a plate reader (BMG Pherastar FSX).
The dose-response curves for Examples 3u208, 3u246, 3u118, 3u119, 3u120, and 3u74 are shown in FIG. 1 (where percent degradation is plotted vs. test compound concentration in M on a log-scale).

Row | Emax [%] | Structure (SMILES)
1 | 30 to 40 | CNc1ccn(-c2ccnc3c2cc(CN2CCC(c4c(F)cc(C(=O)N5CCC(CN6CCN(c7ccc8c(c7)C7(CC7)C(=O)N8[C@H]7CCC(=O)NC7=O)CC6)CC5)cc4F)CC2)n3C)c(=O)c1 (single isomer, unassigned) [Example 3u151]

Same assay, conditions: HeLa LgBiT clone 4.14 HiBiT-STAT6, 4-24 h incubation; values given for compounds with >80% Emax; geometric mean; read-out: STAT6 degradation DC50

Row | DC50 [nM] | Structure (SMILES)
2 | 4.3 | CNc1ccn(-c2ccnc3c2cc(CN2CC=C(c4c(F)cc(C(=O)N5CCC(CN6CCN(Cc7ccc8c(c7)n(C)c(=O)n8[C@H]7CCC(=O)NC7=O)C[C@@H]6C)CC5)cc4F)CC2)n3C)c(=O)c1 (single isomer, unassigned) [Example 3u2]
3 | 1.8 | CNc1ccn(-c2ccnc3c2cc(CN2CC=C(c4c(F)cc(C(=O)N5CCC(CN6CCN(Cc7ccc8c(c7)n(C)c(=O)n8[C@@H]7CCC(=O)NC7=O)C[C@@H]6C)CC5)cc4F)CC2)n3C)c(=O)c1 (single isomer, unassigned) [Example 3u3]
4 | 0.6 | CNc1ccn(-c2ccnc3c2cc([C@H](C)N2CCC(c4ccc(C(=O)N5CCC(CN6CCN(Cc7ccc8c(c7)C7(CC7)C(=O)N8[C@@H]7CCC(=O)NC7=O)C[C@@H]6C)CC5)cc4)CC2)n3C)c(=O)c1 (single isomer, unassigned) [Example 3u7]
5 | 1.2 | Cc1cc(C(=O)N2CCC(CN3CCN(Cc4ccc5c(c4)n(C)c(=O)n5[C@H]4CCC(=O)NC4=O)C[C@@H]3C)CC2)cc(F)c1C1=CCN(Cc2cc3c(-n4ccc5c(c4=O)CCN5)ccnc3n2C)CC1 (single isomer, unassigned) [Example 3u24]
6 | 0.3 | CNc1ccn(-c2ccnc3c2cc([C@H](C)N2CC=C(c4c(C)cc(C(=O)N5CCC(CN6CCN(Cc7ccc8c(c7)n(C)c(=O)n8[C@@H]7CCC(=O)NC7=O)C[C@@H]6C)CC5)cc4F)CC2)n3C)c(=O)c1 (single isomer, unassigned) [Example 3u34]
7 | 2.3 | Cc1cc(C(=O)N2CCC(CN3CCN(Cc4ccc5c(c4)n(C)c(=O)n5[C@@H]4CCC(=O)NC4=O)C[C@@H]3C)CC2)cc(F)c1C1CCN(Cc2cc3c(-n4ccc5c(c4=O)CCN5)ccnc3n2C)CC1 (single isomer, unassigned) [Example 3u40]
8 | 6 | Cc1cc(C(=O)N2CCC(CN3CCN(Cc4ccc5c(c4)n(C)c(=O)n5[C@H]4CCC(=O)NC4=O)C[C@@H]3C)CC2)cc(F)c1C1CCN(Cc2cc3c(-n4ccc5c(c4=O)CCN5)ccnc3n2C)CC1 (single isomer, unassigned) [Example 3u41]
9 | 0.8 | CNc1ccn(-c2ccnc3c2cc([C@H](C)N2CCC(c4c(F)cc(C(=O)N5CCC(CN6CCN(Cc7ccc8c(c7)C(C)(C)C(=O)N8[C@H]7CCC(=O)NC7=O)C[C@@H]6C)CC5)cc4F)CC2)n3C)c(=O)c1 (single isomer, unassigned) [Example 3u81]
10 | 0.9 | CNc1ccn(-c2ccnc3c2cc([C@H](C)N2CC=C(c4c(C)cc(C(=O)N5CCC(CN6CCN(Cc7cc8c(cc7F)n([C@H]7CCC(=O)NC7=O)c(=O)n8C7CC7)CC6)CC5)cc4F)CC2)n3C)c(=O)c1 (single isomer, unassigned) [Example 3u104]
11 | 1.4 | CNc1ccn(-c2ccnc3c2cc([C@H](C)N2CC=C(c4c(C)cc(C(=O)N5CCC(CN6CCN(Cc7cc8c(cc7F)n([C@@H]7CCC(=O)NC7=O)c(=O)n8C7CC7)CC6)CC5)cc4F)CC2)n3C)c(=O)c1 (single isomer, unassigned) [Example 3u105]
12 | 0.5 | CNc1ccn(-c2ccnc3c2cc([C@H](C)N2CC=C(c4c(C)cc(C(=O)N5CCC(CN6CCN(Cc7ccc8c(c7)n(C7CC7)c(=O)n8[C@H]7CCC(=O)NC7=O)C[C@@H]6C)CC5)cc4F)CC2)n3C)c(=O)c1 (single isomer, unassigned) [Example 3u112]
13 | 0.6 | CNc1ccn(-c2ccnc3c2cc([C@H](C)N2CC=C(c4c(C)cc(C(=O)N5CCC(CN6CCN(Cc7ccc8c(c7)n(C7CC7)c(=O)n8[C@@H]7CCC(=O)NC7=O)C[C@@H]6C)CC5)cc4F)CC2)n3C)c(=O)c1 (single isomer, unassigned) [Example 3u113]
14 | 0.9 | CNc1ccn(-c2ccnc3c2cc([C@H](C)N2CC=C(c4c(C)cc(C(=O)N5CCC(CN6CCN(Cc7ccc8c(c7)n(C7CC7)c(=O)n8[C@H]7CCC(=O)NC7=O)CC6)CC5)cc4F)CC2)n3C)c(=O)c1 (single isomer, unassigned) [Example 3u123]
15 | 0.5 | Cc1cc(C(=O)N2CCC(CN3CCN(Cc4cc5c(cc4F)n([C@H]4CCC(=O)NC4=O)c(=O)n5C4CC4)C[C@@H]3C)CC2)cc(F)c1C1=CCN([C@@H](C)c2cc3c(-n4ccc5c(c4=O)CCN5)ccnc3n2C)CC1 (single isomer, unassigned) [Example 3u132]
16 | 0.8 | Cc1cc(C(=O)N2CCC(CN3CCN(Cc4cc5c(cc4F)n([C@@H]4CCC(=O)NC4=O)c(=O)n5C4CC4)C[C@@H]3C)CC2)cc(F)c1C1=CCN([C@@H](C)c2cc3c(-n4ccc5c(c4=O)CCN5)ccnc3n2C)CC1 (single isomer, unassigned) [Example 3u133]
17 | 0.2 | Cc1cc(C(=O)N2CCC(CN3CCN(Cc4ccc5c(c4)n(C)c(=O)n5[C@@H]4CCC(=O)NC4=O)C[C@@H]3C)CC2)cc(F)c1C1=CCN([C@@H](C)c2cc3c(-n4ccc5c(c4=O)CCN5)ccnc3n2C)CC1 (single isomer, unassigned) [Example 3u139]
18 | 2.4 | Cc1cc(C(=O)N2CCC(CN3CCN(Cc4ccc5c(c4)n(C4CC4)c(=O)n5[C@H]4CCC(=O)NC4=O)CC3)CC2)cc(F)c1C1=CCN([C@@H](C)c2cc3c(-n4ccc5c(c4=O)CCN5)ccnc3n2C)CC1 (single isomer, unassigned) [Example 3u142]
19 | 0.4 | Cc1cc(C(=O)N2CCC(CN3CCN(Cc4ccc5c(c4)n(C4CC4)c(=O)n5[C@@H]4CCC(=O)NC4=O)C[C@@H]3C)CC2)cc(F)c1C1=CCN([C@@H](C)c2cc3c(-n4ccc5c(c4=O)CCN5)ccnc3n2C)CC1 (single isomer, unassigned) [Example 3u144]
20 | 2 | Cc1cc(C(=O)N2CCC(CN3CCN(Cc4ccc5c(c4)n(C4CC4)c(=O)n5[C@H]4CCC(=O)NC4=O)C[C@@H]3C)CC2)cc(F)c1C1=CCN([C@@H](C)c2cc3c(-n4ccc5c(c4=O)CCN5)ccnc3n2C)CC1 (single isomer, unassigned) [Example 3u145]
21 | 1.6 | Cc1cc(C(=O)N2CCC(CN3CCN(Cc4cc5c(cc4F)n([C@H]4CCC(=O)NC4=O)c(=O)n5C4CC4)CC3)CC2)cc(F)c1C1=CCN([C@@H](C)c2cc3c(-n4ccc5c(c4=O)CCN5)ccnc3n2C)CC1 (single isomer, unassigned) [Example 3u147]
22 | 2.7 | Cc1cc(C(=O)N2CCC(CN3CCN(Cc4cc5c(cc4F)n([C@@H]4CCC(=O)NC4=O)c(=O)n5C4CC4)CC3)CC2)cc(F)c1C1=CCN([C@@H](C)c2cc3c(-n4ccc5c(c4=O)CCN5)ccnc3n2C)CC1 (single isomer, unassigned) [Example 3u148]
23 | 0.6 | CNc1ccn(-c2ccnc3c2cc([C@H](C)N2CC=C(c4c(C)cc(C(=O)N5CCC(CN6CCN(Cc7ccc8c(c7)n(C)c(=O)n8[C@H]7CCC(=O)NC7=O)CC6)CC5)cc4F)CC2)n3C)c(=O)c1 (single isomer, unassigned) [Example 3u156]
24 | 0.8 | CNc1ccn(-c2cccc3c2cc([C@H](C)N2CC=C(c4c(C)cc(C(=O)N5CCC(CN6CCN(Cc7cc8c(cc7F)n([C@H]7CCC(=O)NC7=O)c(=O)n8C7CC7)C[C@@H]6C)CC5)cc4F)CC2)n3C)c(=O)c1 (single isomer, unassigned) [Example 3u167]
25 | 2.1 | CNc1ccn(-c2ccnc3c2cc([C@H](C)N2CC=C(c4c(C)cc(C(=O)N5CCC(CN6CCN(Cc7cc8c(cc7F)n([C@@H]7CCC(=O)NC7=O)c(=O)n8C7CC7)C[C@@H]6C)CC5)cc4F)CC2)n3C)c(=O)c1 (single isomer, unassigned) [Example 3u168]
